Assay results taken from US20250136606A1, “MODULATORS OF TRPML, THEIR COMPOSITIONS AND METHODS OF USE” (Caraway Therapeutics, Inc., priority 2021, published 2025).
Read-outs that look alike come from different tables or passages of the source.

Legend:
Type in all cases: cell-based
[1] = target: TRPML1 (Homo sapiens, UniProt Q9GZU1); experiment: Fluorescent TRPML1 assay (Fluo4-AM calcium fluorescence in doxycycline-induced HEK-293 Trex cells)
In short: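 hTRPML1 (mutated for cell-surface expression) in HEK-293 Trex, dox 0.5 ug/mL o/n; Fluo4-AM 1 uM ~60 min, then ~60 min de-esterification, dark; modified Ringer's + 10 mM Ca. Cmpds 20 uM–6 nM final, half-log, n=3. Ex480/Em540; % activity vs ctrls; EC50 by nonlinear regression.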

[2] = target: T1, TRPML2 (Homo sapiens, UniProt Q8IZK6); experiment: Fluorescent TRPML2 assay (performed as for TRPML1, substituting the TRPML2 subtype)
T1 construct: expressed in transfected cells
T1 sequence (Q8IZK6 1-566): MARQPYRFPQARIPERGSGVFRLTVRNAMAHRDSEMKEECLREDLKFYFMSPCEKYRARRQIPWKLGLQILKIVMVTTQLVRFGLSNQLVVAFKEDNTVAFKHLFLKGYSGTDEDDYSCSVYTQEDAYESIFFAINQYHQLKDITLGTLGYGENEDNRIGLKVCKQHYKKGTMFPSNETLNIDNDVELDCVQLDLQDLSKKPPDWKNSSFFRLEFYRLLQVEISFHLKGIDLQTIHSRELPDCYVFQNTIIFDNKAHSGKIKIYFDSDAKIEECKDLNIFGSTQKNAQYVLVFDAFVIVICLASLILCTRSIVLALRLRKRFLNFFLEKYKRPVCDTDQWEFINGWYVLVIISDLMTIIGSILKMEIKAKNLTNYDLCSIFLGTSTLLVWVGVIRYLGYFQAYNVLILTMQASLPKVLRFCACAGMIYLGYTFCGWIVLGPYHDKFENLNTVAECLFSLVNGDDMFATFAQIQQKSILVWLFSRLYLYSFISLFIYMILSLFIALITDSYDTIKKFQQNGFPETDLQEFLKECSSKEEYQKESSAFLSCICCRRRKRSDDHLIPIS
Description: HEK-293 Trex cells were stably transfected with a construct consisting of the human coding sequence for TRPML1 cloned into the […] plasmid pCDNA5 T/O. Mutations were introduced into the TRPML1 sequence to facilitate expression on the cell surface (Silvia Vergarajauregui, Rosa Puertollano, Traffic. 2006 March; 7(3): 337-353). Briefly, the cells are cultured in 150 mm round tissue culture dishes containing 20 mL of media. The day before the assay the cells are rinsed with DPBS-Ca—Mg and then treated briefly with Trypsin-EDTA. The Trypsin-EDTA is diluted with growth media, and cells are counted. 38×10^6 cells are re-plated into 150 mm round tissue culture dishes in media containing 0.5 ug/mL doxycycline to induce expression of hTRPML1.
The day of the experiment cells are lifted from the plates as above and collected by centrifugation. The cells are then suspended in dye loading buffer consisting of Ringer's solution supplemented with 0.1% Pluronic Acid and 1 micromolar Fluo4-AM dye. Cells are loaded for ˜60 minutes in the dark with occasional mixing. The cells are collected by centrifugation, the loading media aspirated, and the cells resuspended in 25 mL Ringer's solution and incubated ˜60 minutes in the dark. The cells are again collected by centrifugation, rinsed in Ringer's Solution and resuspended to […] in modified Ringer's solution containing 10 mM calcium.
Compounds are dissolved to a concentration of 10 millimolar with DMSO. Compound plates are created by dispensing compounds into 384 well black wall clear bottom plates (Greiner 781091). Positive and negative controls are included on each plate. Typically, different amounts of each compound are tested ranging from 100 nanoMoles (20 micromolar final concentration) decreasing in half-log steps to 31 picoMoles (6 nanomolar final concentration). Each concentration is typically tested in triplicate.
50 microliters of dye-loaded cells are dispensed into each well of the compound assay plate created above. The fluorescence in each well is then determined with an excitation wavelength of 480 nm and an emission wavelength of 540 nm using either a Molecular Devices SpectraMax multimode plate reader or a Hamamatsu FDSS/uCell plate imager.
The resulting fluorescence for each well is exported as an ascii file and loaded into our LIMS for analysis. The percent activity of each compound at each concentration is determined by comparison to the positive and negative control wells included in each plate.
TRPML2 and TRPML3 Assays Assays for TRPML2 and TRPML3 were performed as above for TRPML1, by substituting the appropriate TRPML2 or TRPML3 subtype for the TRPML1.
EC50 values were calculated using a non-linear regression of Prism. In the table, “A” indicates an EC50 of less than 100 nM, “B” indicates an EC50 range from 100 nM to 500 nM; “C” indicates an EC50 range from 500 nM to 2 μM; and “D” indicates an EC50 greater than 2 μM.

[3] = target: T2, TRPML3 (Homo sapiens, UniProt Q8TDD5); experiment: Fluorescent TRPML3 assay (performed as for TRPML1, substituting the TRPML3 subtype)
T2 construct: expressed in transfected cells
T2 sequence (Q8TDD5 1-553): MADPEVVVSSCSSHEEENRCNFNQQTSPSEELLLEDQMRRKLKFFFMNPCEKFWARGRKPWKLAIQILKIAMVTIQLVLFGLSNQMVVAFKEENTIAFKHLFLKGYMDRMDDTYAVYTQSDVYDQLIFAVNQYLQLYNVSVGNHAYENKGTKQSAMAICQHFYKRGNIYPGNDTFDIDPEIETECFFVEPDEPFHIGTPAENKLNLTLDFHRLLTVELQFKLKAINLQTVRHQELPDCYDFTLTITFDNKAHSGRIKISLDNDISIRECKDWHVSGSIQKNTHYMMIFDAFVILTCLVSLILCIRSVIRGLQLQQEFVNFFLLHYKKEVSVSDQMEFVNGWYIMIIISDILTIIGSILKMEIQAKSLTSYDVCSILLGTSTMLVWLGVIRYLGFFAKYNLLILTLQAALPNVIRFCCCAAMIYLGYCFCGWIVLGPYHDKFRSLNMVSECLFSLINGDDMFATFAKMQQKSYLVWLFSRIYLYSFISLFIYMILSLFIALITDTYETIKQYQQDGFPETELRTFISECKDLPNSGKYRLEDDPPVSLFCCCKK
In short: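 Compound series (final 6 nM-20 μM, half-log, triplicate) were added to Fluo4-AM-loaded HEK-293 Trex cells in 10 mM calcium Ringer's, expressing the human TRPML subtype after doxycycline 0.5 ug/mL induction. Percent activity versus positive/negative controls from 480/540 nm fluorescence; EC50 by non-linear regression.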

Sequence of TRPML1 (Q9GZU1 whole entry L15A/L16A/L577A/L578A, form open): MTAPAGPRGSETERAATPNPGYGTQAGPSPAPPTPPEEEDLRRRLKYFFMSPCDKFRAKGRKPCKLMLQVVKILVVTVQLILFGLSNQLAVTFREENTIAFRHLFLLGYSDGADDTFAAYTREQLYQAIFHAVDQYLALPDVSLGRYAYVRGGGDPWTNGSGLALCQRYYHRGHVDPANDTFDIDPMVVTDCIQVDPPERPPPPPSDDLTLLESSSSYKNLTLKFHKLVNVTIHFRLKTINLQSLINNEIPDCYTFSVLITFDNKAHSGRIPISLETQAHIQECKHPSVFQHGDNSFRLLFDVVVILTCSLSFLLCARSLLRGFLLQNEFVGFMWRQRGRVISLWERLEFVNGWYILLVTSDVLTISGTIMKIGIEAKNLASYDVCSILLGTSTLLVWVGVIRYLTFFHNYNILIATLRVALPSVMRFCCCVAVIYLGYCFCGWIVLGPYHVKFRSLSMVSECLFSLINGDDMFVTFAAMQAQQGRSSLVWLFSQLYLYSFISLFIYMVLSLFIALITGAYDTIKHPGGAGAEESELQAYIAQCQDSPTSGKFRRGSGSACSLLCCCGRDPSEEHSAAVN

SMILES	EC50 ([1]; fluorescent calcium assay) [nM]	EC50 ([2]; fluorescent calcium assay) [nM]	EC50 ([3]; fluorescent calcium assay) [nM]	EC50 [1] [nM]	EC50 [2] [nM]	EC50 [3] [nM]
C[C@@H]1CN(c2ncnc3c2c(C2CC2)cn3-c2cc(F)c(F)c(Cl)c2)CCN1C(=O)OC(C)(C)C [Compound 207, tert-butyl (R)-4-(7-(3-chloro-4,5-difluorophenyl)-5-cyclopropyl-7H-pyrrolo[2,3-d]pyrimidin-4-yl)-2-methylpiperazine-1-carboxylate]	< 100	100 to 500	< 100			
Cc1cn(-c2cc(C#N)ccn2)c2ncnc(N3C[C@@H](C)N(C(=O)OC(C)(C)C)C[C@@H]3C)c12 [Compound 477, tert-butyl (2R,5S)-4-(7-(4-cyanopyridin-2-yl)-5-methyl-7H-pyrrolo[2,3-d]pyrimidin-4-yl)-2,5-dimethylpiperazine-1-carboxylate]	< 100	< 100	< 100			
Cc1cn(-c2cccc(F)c2)c2ncnc(N3C[C@@H](C)N(C(=O)OC(C)(C)C)C[C@@H]3C)c12 [Compound 666, tert-butyl (2R,5S)-4-(7-(3-fluorophenyl)-5-methyl-7H-pyrrolo[2,3-d]pyrimidin-4-yl)-2,5-dimethylpiperazine-1-carboxylate]				< 100	100 to 500	100 to 500
CC(C)(CF)OC(=O)N1CCN(c2ncnc3c2c(-c2ccccc2F)cn3-c2cncnc2)CC1 [Compound 173, 1-fluoro-2-methylpropan-2-yl 4-(5-(2-fluorophenyl)-7-(pyrimidin-5-yl)-7H-pyrrolo[2,3-d]pyrimidin-4-yl)piperazine-1-carboxylate]	500 to 2000	> 2000	500 to 2000			
C[C@H]1CN(C(=O)OC(C)(C)C)CCN1c1ncnc2c1c(-c1ccccc1F)cn2-c1cnnc(C#N)c1 [Compound 448, tert-butyl (S)-4-(7-(6-cyanopyridazin-4-yl)-5-(2-fluorophenyl)-7H-pyrrolo[2,3-d]pyrimidin-4-yl)-3-methylpiperazine-1-carboxylate]	< 100	100 to 500	< 100			
Cc1cc(-n2cc(-c3ccccc3F)c3c(N4CCN(C(=O)OC(C)(C)C)C[C@@H]4C)ncnc32)cc(C#N)n1 [Compound 444, tert-butyl (S)-4-(7-(2-cyano-6-methylpyridin-4-yl)-5-(2-fluorophenyl)-7H-pyrrolo[2,3-d]pyrimidin-4-yl)-3-methylpiperazine-1-carboxylate]	< 100	100 to 500	< 100			
Cc1cncc(-n2cc(C3CC3)c3c(N4CCN(C(=O)OC(C)(C)C)[C@H](C)C4)ncnc32)c1 (single isomer, unassigned) [Compound 175]	500 to 2000	> 2000	500 to 2000			
Cc1ccc(Cl)cc1-n1cc(N2CCCC2)c2c(N3CCN(C(=O)OC(C)(C)C)C[C@@H]3C)ncnc21 [Compound 306, tert-butyl (S)-4-(7-(5-chloro-2-methylphenyl)-5-(pyrrolidin-1-yl)-7H-pyrrolo[2,3-d]pyrimidin-4-yl)-3-methylpiperazine-1-carboxylate]	500 to 2000	500 to 2000	100 to 500			
CCc1cn(-c2cc(C#N)ccn2)c2ncnc(N3CCN(C(=O)OC(C)(C)C)C[C@@H]3C)c12 [Compound 478, tert-butyl (S)-4-(7-(4-cyanopyridin-2-yl)-5-ethyl-7H-pyrrolo[2,3-d]pyrimidin-4-yl)-3-methylpiperazine-1-carboxylate]	< 100	< 100	< 100			
C[C@@H]1CN(c2ncnc3c2c(-c2cccnc2)cn3-c2cc(F)cc(Cl)c2)CCN1C(=O)OC(C)(C)C [Compound 222, tert-butyl (R)-4-(7-(3-chloro-5-fluorophenyl)-5-(pyridin-3-yl)-7H-pyrrolo[2,3-d]pyrimidin-4-yl)-2-methylpiperazine-1-carboxylate]	< 100	500 to 2000	< 100			
C[C@@H]1CN(c2ncnc3c2c(N2CCCC2=O)cn3-c2cc(F)c(F)c(F)c2)CCN1C(=O)OC(C)(C)C [Compound 313, tert-butyl (R)-2-methyl-4-(5-(2-oxopyrrolidin-1-yl)-7-(3,4,5-trifluorophenyl)-7H-pyrrolo[2,3-d]pyrimidin-4-yl)piperazine-1-carboxylate]	> 2000	> 2000	500 to 2000			
C[C@H]1CN(C(=O)OC(C)(C)C)CCN1c1ncnc2c1c(-c1ccccc1F)cn2-c1nc(C#N)cs1 [Compound 433, tert-butyl (S)-4-(7-(4-cyanothiazol-2-yl)-5-(2-fluorophenyl)-7H-pyrrolo[2,3-d]pyrimidin-4-yl)-3-methylpiperazine-1-carboxylate]	100 to 500	500 to 2000	100 to 500			
C[C@H]1CN(C(=O)OC(C)(C)C)CCN1c1ncnc2c1c(-c1ccccn1)cn2-c1cc(F)cc(F)c1 [Compound 235, tert-butyl-(S)-4-(7-(3,5-difluorophenyl)-5-(pyridin-2-yl)-7H-pyrrolo[2,3-d]pyrimidin-4-yl)-3-methylpiperazine-1-carboxylate]	100 to 500	100 to 500	100 to 500			
CCOC(=O)N1C[C@H](C)N(c2ncnc3c2c(-c2ccccc2F)cn3-c2cncc(OC)c2)C[C@H]1C [Compound 138, ethyl (2R,5S)-4-(5-(2-fluorophenyl)-7-(5-methoxypyridin-3-yl)-7H-pyrrolo[2,3-d]pyrimidin-4-yl)-2,5-dimethylpiperazine-1-carboxylate]	500 to 2000	500 to 2000	500 to 2000			
Cc1cc(C#N)cc(-n2cc(C(F)(F)F)c3c(N4C[C@@H](C)N(C(=O)OC(C)(C)C)C[C@@H]4C)ncnc32)n1 [Compound 517, tert-butyl (2R,5S)-4-(7-(4-cyano-6-methylpyridin-2-yl)-5-(trifluoromethyl)-7H-pyrrolo[2,3-d]pyrimidin-4-yl)-2,5-dimethylpiperazine-1-carboxylate]				< 100	100 to 500	< 100
